These results are taken from ChEMBL document CHEMBL5291721, “A preclinical secondary pharmacology resource illuminates target-adverse drug reaction associations of marketed drugs” (Nat Commun, 2023).

Some targets named below: Motilin receptor (Homo sapiens, UniProt O43193); Vasopressin V2 receptor (Homo sapiens, UniProt P30518); Vasopressin V1a receptor (Homo sapiens, UniProt P37288); Adenosine receptor A2a (Homo sapiens, UniProt P29274).
Test [1] deals with Glutamate receptor ionotropic, NMDA 1 (Rattus norvegicus, UniProt P35439).
Test [2] deals with T1, Gastrin/cholecystokinin type B receptor (Homo sapiens, UniProt P32239).
T1 sequence (P32239 whole entry): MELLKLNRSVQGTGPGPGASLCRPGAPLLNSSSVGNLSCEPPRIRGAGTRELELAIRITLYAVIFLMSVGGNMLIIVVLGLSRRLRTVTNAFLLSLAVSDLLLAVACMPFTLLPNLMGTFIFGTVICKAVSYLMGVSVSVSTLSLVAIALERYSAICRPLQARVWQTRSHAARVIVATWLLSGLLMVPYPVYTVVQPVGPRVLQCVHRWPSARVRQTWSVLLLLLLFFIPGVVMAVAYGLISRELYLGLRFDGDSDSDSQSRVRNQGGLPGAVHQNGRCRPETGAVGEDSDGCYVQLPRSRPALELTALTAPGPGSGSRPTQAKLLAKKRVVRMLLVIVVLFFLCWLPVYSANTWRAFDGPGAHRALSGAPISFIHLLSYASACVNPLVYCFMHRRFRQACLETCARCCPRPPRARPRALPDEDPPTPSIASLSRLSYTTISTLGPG

Test [3] has as its target T2, Neuropeptide Y receptor type 1 (Homo sapiens, UniProt P25929).
T2 sequence (P25929 whole entry): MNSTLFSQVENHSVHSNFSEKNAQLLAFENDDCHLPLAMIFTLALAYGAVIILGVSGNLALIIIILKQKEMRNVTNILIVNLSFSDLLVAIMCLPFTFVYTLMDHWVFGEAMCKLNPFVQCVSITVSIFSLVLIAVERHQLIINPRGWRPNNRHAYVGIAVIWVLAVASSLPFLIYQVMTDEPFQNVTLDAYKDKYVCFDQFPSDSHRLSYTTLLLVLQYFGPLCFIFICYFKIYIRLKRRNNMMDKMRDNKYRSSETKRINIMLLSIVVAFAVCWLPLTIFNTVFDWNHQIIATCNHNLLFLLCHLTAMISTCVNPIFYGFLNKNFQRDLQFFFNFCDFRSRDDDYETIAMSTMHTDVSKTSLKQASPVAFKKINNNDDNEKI

Another test has as its target T3, Glucocorticoid receptor (Homo sapiens, UniProt P04150).
T3 sequence (P04150 whole entry): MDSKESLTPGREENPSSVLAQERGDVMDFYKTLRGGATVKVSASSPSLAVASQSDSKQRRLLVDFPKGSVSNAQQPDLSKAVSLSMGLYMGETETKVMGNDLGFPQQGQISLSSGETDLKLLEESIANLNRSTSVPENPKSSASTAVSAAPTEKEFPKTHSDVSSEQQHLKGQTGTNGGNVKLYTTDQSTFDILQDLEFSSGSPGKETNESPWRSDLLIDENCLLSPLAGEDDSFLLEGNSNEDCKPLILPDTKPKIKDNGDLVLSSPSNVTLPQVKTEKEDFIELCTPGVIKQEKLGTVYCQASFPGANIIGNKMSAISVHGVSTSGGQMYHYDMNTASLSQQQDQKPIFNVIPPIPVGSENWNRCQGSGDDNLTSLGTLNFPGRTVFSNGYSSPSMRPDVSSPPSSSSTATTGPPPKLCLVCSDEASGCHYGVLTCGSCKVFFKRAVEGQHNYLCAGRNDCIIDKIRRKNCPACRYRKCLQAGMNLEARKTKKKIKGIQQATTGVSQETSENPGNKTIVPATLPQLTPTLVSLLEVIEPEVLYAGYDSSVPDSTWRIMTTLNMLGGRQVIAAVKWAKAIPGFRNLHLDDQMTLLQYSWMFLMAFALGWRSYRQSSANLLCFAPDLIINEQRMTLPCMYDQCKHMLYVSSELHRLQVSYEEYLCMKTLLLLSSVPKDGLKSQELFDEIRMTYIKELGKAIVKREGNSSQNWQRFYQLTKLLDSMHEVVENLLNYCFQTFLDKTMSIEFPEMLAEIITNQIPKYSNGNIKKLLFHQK

The target of a further test is T4, Progesterone receptor (Homo sapiens, UniProt P06401).
T4 sequence (P06401 whole entry): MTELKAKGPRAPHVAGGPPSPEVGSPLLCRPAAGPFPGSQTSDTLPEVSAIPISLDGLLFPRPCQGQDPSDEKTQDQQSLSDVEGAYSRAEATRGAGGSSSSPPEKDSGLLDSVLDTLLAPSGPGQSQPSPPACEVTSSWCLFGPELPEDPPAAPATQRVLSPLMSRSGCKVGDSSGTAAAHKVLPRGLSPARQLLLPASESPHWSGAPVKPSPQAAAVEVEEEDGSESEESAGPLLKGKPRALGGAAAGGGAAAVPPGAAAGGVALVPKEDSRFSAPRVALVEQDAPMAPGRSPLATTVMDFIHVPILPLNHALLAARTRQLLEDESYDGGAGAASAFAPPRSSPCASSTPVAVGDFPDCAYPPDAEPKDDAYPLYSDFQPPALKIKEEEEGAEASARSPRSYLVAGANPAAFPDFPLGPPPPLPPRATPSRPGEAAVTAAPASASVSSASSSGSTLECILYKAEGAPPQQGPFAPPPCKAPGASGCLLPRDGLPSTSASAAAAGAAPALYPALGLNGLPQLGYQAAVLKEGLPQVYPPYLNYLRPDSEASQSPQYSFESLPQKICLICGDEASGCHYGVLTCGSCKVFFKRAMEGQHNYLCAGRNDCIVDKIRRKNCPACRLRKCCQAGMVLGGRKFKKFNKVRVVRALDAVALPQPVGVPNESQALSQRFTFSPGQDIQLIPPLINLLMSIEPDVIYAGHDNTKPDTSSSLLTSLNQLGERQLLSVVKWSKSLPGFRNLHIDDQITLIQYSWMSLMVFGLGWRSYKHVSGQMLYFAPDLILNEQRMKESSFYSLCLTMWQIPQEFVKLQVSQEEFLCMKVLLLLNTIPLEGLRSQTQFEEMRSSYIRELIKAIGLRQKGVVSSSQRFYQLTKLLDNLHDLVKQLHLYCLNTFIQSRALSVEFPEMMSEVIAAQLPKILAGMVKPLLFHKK
The class given is functional.
Note: assay procedure not described here.

Sequence of Vasopressin V2 receptor (P30518 whole entry): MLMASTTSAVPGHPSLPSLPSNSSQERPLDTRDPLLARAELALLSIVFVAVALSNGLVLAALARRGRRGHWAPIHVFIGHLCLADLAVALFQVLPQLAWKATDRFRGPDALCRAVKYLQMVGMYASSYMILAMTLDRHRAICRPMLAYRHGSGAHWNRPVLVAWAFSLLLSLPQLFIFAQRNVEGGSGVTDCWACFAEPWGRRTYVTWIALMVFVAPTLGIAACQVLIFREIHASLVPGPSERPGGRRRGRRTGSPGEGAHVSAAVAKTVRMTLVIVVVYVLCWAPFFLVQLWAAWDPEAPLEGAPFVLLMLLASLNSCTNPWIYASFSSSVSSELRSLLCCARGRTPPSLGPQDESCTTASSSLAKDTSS
Sequence of Motilin receptor (O43193 whole entry): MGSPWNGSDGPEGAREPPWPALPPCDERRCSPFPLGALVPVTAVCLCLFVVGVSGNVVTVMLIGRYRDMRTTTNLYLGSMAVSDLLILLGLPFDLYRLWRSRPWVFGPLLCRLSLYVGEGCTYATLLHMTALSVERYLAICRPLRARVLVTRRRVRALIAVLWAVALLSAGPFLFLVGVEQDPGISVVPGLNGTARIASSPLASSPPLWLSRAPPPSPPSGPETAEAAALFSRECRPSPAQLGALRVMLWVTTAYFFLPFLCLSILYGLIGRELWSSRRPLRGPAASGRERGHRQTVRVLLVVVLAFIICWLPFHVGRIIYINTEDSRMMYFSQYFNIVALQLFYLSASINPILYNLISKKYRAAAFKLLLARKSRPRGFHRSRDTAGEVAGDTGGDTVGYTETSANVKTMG
Sequence of Vasopressin V1a receptor (P37288 whole entry): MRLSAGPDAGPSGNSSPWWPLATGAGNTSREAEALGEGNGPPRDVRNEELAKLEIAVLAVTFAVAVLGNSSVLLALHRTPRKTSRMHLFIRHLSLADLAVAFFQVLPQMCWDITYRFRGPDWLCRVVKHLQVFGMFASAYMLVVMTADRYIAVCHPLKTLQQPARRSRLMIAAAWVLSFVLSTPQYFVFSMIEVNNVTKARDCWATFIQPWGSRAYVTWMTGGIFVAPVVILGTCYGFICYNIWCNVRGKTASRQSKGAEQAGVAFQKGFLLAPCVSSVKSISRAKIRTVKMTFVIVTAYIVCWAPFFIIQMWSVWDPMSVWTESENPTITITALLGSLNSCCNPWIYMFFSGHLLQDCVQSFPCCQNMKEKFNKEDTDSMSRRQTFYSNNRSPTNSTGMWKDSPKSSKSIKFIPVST
Sequence of Adenosine receptor A2a (P29274 whole entry): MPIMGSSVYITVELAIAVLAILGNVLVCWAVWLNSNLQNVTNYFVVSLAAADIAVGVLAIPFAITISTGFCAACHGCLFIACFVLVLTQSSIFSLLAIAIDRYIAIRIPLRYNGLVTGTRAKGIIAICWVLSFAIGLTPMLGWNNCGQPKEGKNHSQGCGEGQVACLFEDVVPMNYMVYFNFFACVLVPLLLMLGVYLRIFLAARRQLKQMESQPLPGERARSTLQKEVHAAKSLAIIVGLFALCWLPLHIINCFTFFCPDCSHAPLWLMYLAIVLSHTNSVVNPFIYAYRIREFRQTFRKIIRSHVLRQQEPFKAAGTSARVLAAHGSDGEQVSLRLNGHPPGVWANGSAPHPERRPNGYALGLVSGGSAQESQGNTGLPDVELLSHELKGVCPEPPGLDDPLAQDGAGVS

For `Oc1cc(O)c(Cl)cn1`, the concentration at half-maximal activity (AC50) (on Motilin receptor; in test [1]; on Vasopressin V2 receptor; in [2]; at Vasopressin V1a receptor; at Adenosine receptor A2a) was greater than 30 µM each time. In [3], the AC50 was greater than 30 µM.
In the case of `O=c1c(O)c(-c2ccc(O)c(O)c2)oc2cc(O)cc(O)c12` [QUERCETIN], the AC50 on Motilin receptor was greater than 10 µM; in [2] it was greater than 30 µM; on Vasopressin V1a receptor, greater than 30 µM; at Adenosine receptor A2a it was greater than 30 µM; in test [3] it was greater than 30 µM.
Regarding `CC(=O)c1ccc(S(=O)(=O)NC(=O)NC2CCCCC2)cc1` [ACETOHEXAMIDE], the AC50 (at Motilin receptor; in test [1]; on Vasopressin V2 receptor; at Glucocorticoid receptor; at Vasopressin V1a receptor; on Progesterone receptor) was greater than 10 µM throughout. The concentration at half-maximal activity (AC50) (on Adenosine receptor A2a; in [3]) was greater than 10 µM in each case.
On to `CCc1nc(N)nc(N)c1-c1ccc(Cl)cc1` [PYRIMETHAMINE], for which the concentration at half-maximal activity (AC50) (at Motilin receptor; in test [1]; on Vasopressin V2 receptor; on Glucocorticoid receptor; at Vasopressin V1a receptor; at Progesterone receptor) was greater than 10 µM in each case. The concentration at half-maximal activity (AC50) (on Adenosine receptor A2a; in test [3]) was greater than 10 µM each time.
As to `NS(=O)(=O)c1cc2c(cc1Cl)N=C(CSCc1ccccc1)NS2(=O)=O` [BENZTHIAZIDE], the concentration at half-maximal activity (AC50) on Motilin receptor is greater than 10 µM; in test [1], greater than 10 µM; at Vasopressin V2 receptor, greater than 10 µM; at Glucocorticoid receptor, greater than 30 µM; on Vasopressin V1a receptor, greater than 10 µM; at Progesterone receptor, greater than 30 µM. In addition, the AC50 (on Adenosine receptor A2a; in test [3]) was greater than 10 µM throughout.
Turning to `O=C(c1cc(Cc2n[nH]c(=O)c3ccccc23)ccc1F)N1CCN(C(=O)C2CC2)CC1` [OLAPARIB], the half-maximal activity concentration (AC50) was greater than 30 µM on Motilin receptor; greater than 10 µM in test [1]; greater than 30 µM on Vasopressin V2 receptor; greater than 30 µM at Glucocorticoid receptor; greater than 30 µM at Vasopressin V1a receptor; greater than 30 µM on Progesterone receptor. Also, the AC50 (on Adenosine receptor A2a; in [3]) was greater than 30 µM in each case.
In the case of `CCC(=O)O[C@](Cc1ccccc1)(c1ccccc1)[C@H](C)CN(C)C` [PROPOXYPHENE], the AC50 on Motilin receptor was greater than 10 µM; in test [1], greater than 10 µM; at Vasopressin V2 receptor it was greater than 30 µM; in test [2] it was greater than 30 µM; at Vasopressin V1a receptor it was greater than 10 µM; at Adenosine receptor A2a, greater than 30 µM. The half-maximal activity concentration (AC50) in test [3] is greater than 30 µM.
As to `CCCN1CCCC[C@H]1C(=O)Nc1c(C)cccc1C` [ROPIVACAINE], the concentration at half-maximal activity (AC50) (on Motilin receptor; in test [1]; on Vasopressin V2 receptor; in test [2]; on Vasopressin V1a receptor; on Progesterone receptor) was greater than 30 µM in each case. In addition, the AC50 (on Adenosine receptor A2a; in [3]) was greater than 30 µM in each case.
For `Cc1cc(=O)n(-c2ccccc2)n1C` [ANTIPYRINE], the half-maximal activity concentration (AC50) on Motilin receptor was greater than 10 µM; in test [1] it was greater than 10 µM; at Vasopressin V2 receptor it was greater than 30 µM; in test [2], greater than 30 µM; on Adenosine receptor A2a, greater than 30 µM; in [3], greater than 30 µM.
`CCOC(=O)c1ncn2c1CN(C)C(=O)c1cc(F)ccc1-2` [FLUMAZENIL]: the half-maximal activity concentration (AC50) (on Motilin receptor; in test [1]; on Vasopressin V2 receptor; in [2]; on Progesterone receptor; on Adenosine receptor A2a) was greater than 30 µM throughout. In [3], the AC50 is greater than 30 µM.
For the compound `CC(C)NC[C@H](O)COc1ccc(CC(N)=O)cc1` [ESATENOLOL], the half-maximal activity concentration (AC50) on Motilin receptor was greater than 10 µM; in test [1] it was greater than 10 µM; on Vasopressin V2 receptor, greater than 30 µM; in test [2], greater than 30 µM; on Vasopressin V1a receptor it was greater than 10 µM; at Adenosine receptor A2a, greater than 30 µM. The compound also yielded an AC50 in test [3] greater than 30 µM.
In the case of `C[C@@H]1C[C@H]2[C@@H]3CCC4=CC(=O)C=C[C@]4(C)[C@@]3(F)[C@@H](O)C[C@]2(C)[C@@]1(O)C(=O)CO` [DEXAMETHASONE], the AC50 at Motilin receptor was greater than 30 µM; in [1], greater than 10 µM; at Vasopressin V2 receptor, greater than 30 µM; in test [2], greater than 30 µM; on Vasopressin V1a receptor, greater than 30 µM; at Progesterone receptor, 0.2 µM. In addition, the half-maximal activity concentration (AC50) (on Adenosine receptor A2a; in [3]) was greater than 30 µM each time.
`CCCC(C)(COC(N)=O)COC(N)=O` [MEPROBAMATE]: the AC50 (at Motilin receptor; in test [1]; at Vasopressin V2 receptor; on Glucocorticoid receptor; at Vasopressin V1a receptor; at Progesterone receptor) was greater than 10 µM in each case. For the same compound, the AC50 (on Adenosine receptor A2a; in test [3]) was greater than 10 µM in each case.
With `COc1cc(C)c(/C=C/C(C)=C/C=C/C(C)=C/C(=O)O)c(C)c1C` [ACITRETIN], the AC50 at Motilin receptor was greater than 10 µM; in test [1] it was greater than 10 µM; on Vasopressin V2 receptor, greater than 10 µM; at Glucocorticoid receptor, greater than 30 µM; on Vasopressin V1a receptor, greater than 10 µM; at Progesterone receptor, greater than 30 µM. The AC50 (at Adenosine receptor A2a; in [3]) was greater than 10 µM throughout.
`CC(=O)[C@H]1CC[C@H]2[C@@H]3C[C@H](C)C4=CC(=O)CC[C@]4(C)[C@H]3[C@@H](O)C[C@]12C` [MEDRYSONE]: the AC50 is greater than 10 µM at Motilin receptor; greater than 10 µM in test [1]; greater than 10 µM at Vasopressin V2 receptor; 0.005 µM on Glucocorticoid receptor; greater than 10 µM at Vasopressin V1a receptor; 0.0027 µM on Progesterone receptor. Further, the concentration at half-maximal activity (AC50) (on Adenosine receptor A2a; in [3]) was greater than 10 µM throughout.
Turning to `Oc1ccc(CCNCCCCCCNCCc2ccccc2)cc1O` [DOPEXAMINE], the AC50 (on Motilin receptor; in test [1]; on Vasopressin V2 receptor; in [2]; at Vasopressin V1a receptor; on Progesterone receptor) was greater than 30 µM in each case. The AC50 (on Adenosine receptor A2a; in test [3]) was greater than 30 µM throughout.
